Consider five compounds from ChEMBL document CHEMBL1143236, “Design, synthesis, FGF-1 binding, and molecular modeling studies of conformationally flexible heparin mimetic disaccharides” (Bioorg Med Chem Lett, 2008).

For orientation: Kd means the concentration at which binding is half-saturated. Higher therefore signals a looser complex.

The target in the assay is Fibroblast growth factor 1 (Homo sapiens, UniProt P05230). Kind of assay: Binding affinity at FGF1.
Fibroblast growth factor 1, sequence (P05230 whole entry): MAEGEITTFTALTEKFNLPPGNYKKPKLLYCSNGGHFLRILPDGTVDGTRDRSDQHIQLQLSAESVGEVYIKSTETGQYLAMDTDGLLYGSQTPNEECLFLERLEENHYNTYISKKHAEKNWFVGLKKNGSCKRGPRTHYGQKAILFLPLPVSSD

In the case of `COC[C@H]1O[C@H](O[C@H]2[C@H](OS(=O)(=O)O)[C@@H](OS(=O)(=O)O)[C@H](OC)O[C@@H]2COS(=O)(=O)O)[C@H](OS(=O)(=O)O)[C@@H](OC)[C@H]1OC`, the Kd worked out at 233 µM.
The compound `CO[C@@H]1O[C@H](COS(=O)(=O)O)[C@@H](O[C@H]2O[C@H](COS(=O)(=O)O)[C@H](O)[C@H](O)[C@H]2OS(=O)(=O)O)[C@H](OS(=O)(=O)O)[C@H]1OS(=O)(=O)O` gave a Kd of 21.8 µM. Compared with the last compound, the Kd is about 11-fold lower.
`CO[C@@H]1OC[C@@H](O[C@H]2O[C@H](CO)[C@H](O)[C@H](O)[C@H]2OS(=O)(=O)O)[C@H](OS(=O)(=O)O)[C@H]1OS(=O)(=O)O` gave a Kd of 1400 µM.
`CO[C@@H]1O[C@H](COS(=O)(=O)O)[C@@H](O[C@H]2O[C@H](CO)[C@H](O)[C@H](O)[C@H]2OS(=O)(=O)O)[C@H](OS(=O)(=O)O)[C@H]1OS(=O)(=O)O` gave an equilibrium dissociation constant (Kd) of 77.5 µM.
Compound `CO[C@@H]1O[C@H](COS(=O)(=O)O)[C@@H](O[C@H]2O[C@H](COS(=O)(=O)O)[C@H](OC)[C@H](OC)[C@H]2OS(=O)(=O)O)[C@H](OS(=O)(=O)O)[C@H]1OS(=O)(=O)O` had an equilibrium dissociation constant (Kd) of 47.9 µM.
